Test results from patent US12545695B2, “Compounds for inhibiting neovascularization factors and use thereof” (UNIST (ULSAN NATIONAL INSTITUTE OF SCIENCE AND TECHNOLOGY), priority 2019, dated 2026).

Experiments:
TRAP-1 [1] = assay: Pull-down assay: client proteins SIRT3 and SDHB on GST-TRAP1 beads; type: binding; conditions: TRAP1-bead form with isolated mitochondria and drug, 4° C., 18 hours (FIG. 14)
Description: A pull-down assay was performed to confirm whether SMx competitively binds to SIRT3 and SDHB, which are known as client proteins of TRAP-1. TRAP1 protein in the GST fusion form was purified from bacteria cells and then bound to glutathione beads to make a TRAP1-bead form, and then the TRAP1-bead form was bound to the mitochondria isolated from mammalian cells (Thermo Scientific mitochondria isolation kit) with a drug at 4° C. for 18 hours. The cells were treated with SMx, and gamitrinib and PU-H71, which are previously developed N-terminal domain inhibitors of hsp90s, as the drugs, according to the concentrations shown in the drawing. […] This is strong evidence that SMx has the ability to bind to the middle domain of TRAP-1.

TRAP-1 [2] = assay: ATPase activity assay (PiColorLock Gold Phosphate Detection Kit); type: biochemical; conditions: TRAP1 0.5 μM, 0.2 mM ATP, inhibitor 0.520 μM preincubated 30 minutes (FIG. 16)
Description: ATPase activity was measured by measuring the release of inorganic phosphates through the PiColorLock Gold Phosphate Detection Kit (Innova Biosciences) according to the manufacturer's manual. TRAP1 (0.5 μM) was cultured with 0.2 mM ATP in 100 mM Tris, 20 mM KCl, and 6 mM MgCl2 under the conditions of pH 7.0 and 37° C. for 3 hours. Thereafter, the PiColorLock Gold reagent and an accelerator (100:1) were added to a 100 μL ATP hydrolyzate sample. After culturing at 25° C. for 5 minutes, the change in color was stopped by adding 10 μL of a stop solution thereto, and the absorbance at 620 nm was measured by SYNERGY NEO microplate reader (BioTek Instruments).
For inhibitory ability analysis, TRAP1 was cultured with a predetermined concentration (0.520 μM) of inhibitor for 30 minutes and then stirred with ATP. Absorbance values were normalized to a DMSO control and data was expressed as % ATPase activity.
For inhibitory ability analysis, TRAP-1 was cultured with a predetermined concentration (0.520 μM) of inhibitor for 30 minutes and then stirred with ATP. Absorbance values were normalized to a DMSO control and data was expressed as % ATPase activity.

| Compound | binding of the client protein (SIRT3, SDHB) to TRAP-1 (TRAP-1 [1]) | ATPase activity of TRAP-1 (TRAP-1 [2]) |
| --- | --- | --- |
| CC(C)NCCCn1c(Sc2cc3c(cc2I)OCO3)nc2c(N)ncnc21 [PU-H71] | not significantly changed | significantly decreased according to the concentration |
| gamitrinib | not significantly changed | – |
